According to patent US4731109A, “Herbicidal 2-haloacetanilides” (Monsanto Company, priority 1982, dated 1988):
Like-named read-outs stand apart in the source and are kept apart here.

Assays:
Format in all cases: in vivo
Barnyardgrass [1] = experiment: Resistance to leaching and resulting herbicidal efficacy; conditions: for inhibition at 140 g/ha / inhibition at 560 g/ha / inhibition at 2200 g/ha: Echinochloa crus-galli, read-out: Percent Inhibition
Method: Laboratory tests were conducted to determine the resistance of herbicides according to this invention to leaching into the soil and resulting herbicidal efficacy. […] The pots containing the treated soil were subjected to leaching by placing on a turntable which rotated under two nozzle tips of a water container calibrated to deliver one inch (2.5 cm) of water per hour simulating rainfall. Leaching rates were adjusted by varying the amount of time on the turntable. Water was delivered to the soil in the pots and allowed to percolate through the filter paper and drainage holes. The pots were then allowed to sit for three days at ambient room temperature. The treated soil in the pots was then removed, crumbled and placed as a surface layer on top of other pots containing the above soils seeded with barnyardgrass seeds. The pots were then placed on greenhouse benches, sub-irrigated and allowed to grow for 2-3 weeks. Visual ratings of percent growth inhibition compared to control (untreated) pots and fresh weights for barnyardgrass were recorded; the data from the control represents six replications and that for the test compounds three replications; test data are shown in Table XVIII.

foxtail (spp) = experiment: Field pre-emergence selectivity test; conditions: Setaria, 1008 h, 6 weeks, read-out: Percent Inhibition; for inhibition at 560 g/ha: 0.56 Kg/Ha; for inhibition at 1120 g/ha: 1.12 Kg/Ha; for inhibition at 2240 g/ha: 2.24 Kg/Ha; for inhibition at 4480 g/ha: 4.48 Kg/Ha
Method: (§1) The compound of Examples 1 and 2 was also tested in the field to determine its pre-emergence selectivity against foxtail (spp), barnyardgrass, wild proso millet, smartweed, lambsquarters and pigweed in a plurality of crops; the data (representing three replicate runs) are shown in Table VII for both surface application (S.A.) and soil incorporation (PPI, i.e., preplant incorporation) of the herbicide. The seeds were planted in a fine seedbed of silt loam of intermediate moisture. The seeds were planted at a depth of two inches (5.08 cm). First rainfall (0.2"; 0.51 cm) occurred the day following treatment, the second rain (0.25"; […]) two days after treatment; cumulative rainfall 22 days after treatment was 1.8" (4.57 cm). Observations were made 6 weeks after treatment.

Barnyardgrass [2] = experiment: Field pre-emergence selectivity test; conditions: Echinochloa crus-galli, 1008 h, 6 weeks, read-out: Percent Inhibition; for inhibition at 560 g/ha: 0.56 Kg/Ha; for inhibition at 1120 g/ha: 1.12 Kg/Ha; for inhibition at 2240 g/ha: 2.24 Kg/Ha; for inhibition at 4480 g/ha: 4.48 Kg/Ha
Method: as §1

Field Corn = experiment: Field pre-emergence selectivity test; conditions: Zea mays, 1008 h, 6 weeks, read-out: Percent Inhibition; for inhibition at 560 g/ha: 0.56 Kg/Ha; for inhibition at 1120 g/ha: 1.12 Kg/Ha; for inhibition at 2240 g/ha: 2.24 Kg/Ha; for inhibition at 4480 g/ha: 4.48 Kg/Ha
Method: as §1

Smartweed = experiment: Field pre-emergence selectivity test; conditions: 1008 h, 6 weeks, read-out: Percent Inhibition; for inhibition at 560 g/ha: 0.56 Kg/Ha; for inhibition at 2240 g/ha: 2.24 Kg/Ha; for inhibition at 4480 g/ha: 4.48 Kg/Ha
Method: as §1

snap beans = experiment: Greenhouse pre-emergence GR15/GR85 selectivity test; conditions: Table VI
From the text: A good grade of top soil is placed in aluminum pans and compacted to a depth of three-eighths to one-half inch from the top of the pan. On the top of the soil is placed a number of seeds or vegetative propagules of various plant species. The soil required to level fill the pans after seeding or adding vegetative propagules is weighed into a pan. The soil and a known amount of the active ingredient applied in a solvent or as a wettable powder suspension are thoroughly mixed, and used to cover the prepared pans. After treatment, the pans are given an initial overhead irrigation of eater, equivalent to one-fourth inch (0.64 cm) rainfall, then watered by subirrigation as need to give adequate moisture for germination and growth. As an alternative procedure, the overhead irrigation may be omitted. Observations are made about 2-3 weeks after seeding and treatment.
In the discussion and tables of data below, reference is made to herbicide application rates symbolized as "GR15 " and "GR85 "; these rates are given in kilograms per hectare (kg/ha) which are convertible into pounds per acre (lbs/A) by dividing the kg/ha rate by 1.12.
A further guide to the effectiveness of a chemical as a selective herbicide is the "selectivity factor" ("SF") for a herbicide in given crops and weeds. […]

[3] = Ray silt loam, 0.14 Kg/Ha, rain 0 cm
[4] = Ray silt loam, 0.14 Kg/Ha, rain 1.27 cm
[5] = Ray silt loam, 0.14 Kg/Ha, rain 5.08 cm
[6] = Ray silt loam, 0.56 Kg/Ha, rain 0 cm
[7] = Ray silt loam, 0.56 Kg/Ha, rain 1.27 cm
[8] = Ray silt loam, 0.56 Kg/Ha, rain 5.08 cm
[9] = Ray silt loam, 0.56 Kg/Ha, rain 10.16 cm
[10] = Ray silt loam, 2.2 Kg/Ha, rain 0 cm
[11] = Ray silt loam, 2.2 Kg/Ha, rain 1.27 cm
[12] = Ray silt loam, 2.2 Kg/Ha, rain 5.08 cm
[13] = Ray silt loam, 2.2 Kg/Ha, rain 10.16 cm
[14] = Ray silt loam, 0.14 Kg/Ha, rain 10.16 cm

CCOCN(C(=O)CCl)c1c(C)cccc1C(F)(F)F [Example 1, N-(ethoxymethyl)-2'-trifluoromethyl-6'-methyl-2-chloroacetanilide]
inhibition at 140 g/ha (Barnyardgrass [1]; Drummer silt clay, 0.14 Kg/Ha, rain 0 cm): 100%
inhibition at 140 g/ha (Barnyardgrass [1]; Drummer silt clay, 0.14 Kg/Ha, rain 1.27 cm): 97%
inhibition at 140 g/ha (Barnyardgrass [1]; Drummer silt clay, 0.14 Kg/Ha, rain 5.08 cm): 95%
inhibition at 140 g/ha (Barnyardgrass [1]; Drummer silt clay, 0.14 Kg/Ha, rain 10.16 cm): 20%
inhibition at 560 g/ha (Barnyardgrass [1]; Drummer silt clay, 0.56 Kg/Ha, rain 0 cm): 100%
inhibition at 560 g/ha (Barnyardgrass [1]; Drummer silt clay, 0.56 Kg/Ha, rain 1.27 cm): 100%
inhibition at 560 g/ha (Barnyardgrass [1]; Drummer silt clay, 0.56 Kg/Ha, rain 5.08 cm): 100%
inhibition at 560 g/ha (Barnyardgrass [1]; Drummer silt clay, 0.56 Kg/Ha, rain 10.16 cm): 100%
inhibition at 2200 g/ha (Barnyardgrass [1]; Drummer silt clay, 2.2 Kg/Ha, rain 0 cm): 100%
inhibition at 2200 g/ha (Barnyardgrass [1]; Drummer silt clay, 2.2 Kg/Ha, rain 1.27 cm): 100%
inhibition at 2200 g/ha (Barnyardgrass [1]; Drummer silt clay, 2.2 Kg/Ha, rain 5.08 cm): 100%
inhibition at 2200 g/ha (Barnyardgrass [1]; Drummer silt clay, 2.2 Kg/Ha, rain 10.16 cm): 100%
inhibition at 140 g/ha (Barnyardgrass [1]; [3]): 95%
inhibition at 140 g/ha (Barnyardgrass [1]; [4]): 96%
inhibition at 140 g/ha (Barnyardgrass [1]; [5]): 58%
inhibition at 560 g/ha (Barnyardgrass [1]; [6]): 100%
inhibition at 560 g/ha (Barnyardgrass [1]; [7]): 100%
inhibition at 560 g/ha (Barnyardgrass [1]; [8]): 70%
inhibition at 560 g/ha (Barnyardgrass [1]; [9]): 33%
inhibition at 2200 g/ha (Barnyardgrass [1]; [10]): 100%
inhibition at 2200 g/ha (Barnyardgrass [1]; [11]): 100%
inhibition at 2200 g/ha (Barnyardgrass [1]; [12]): 95%
inhibition at 2200 g/ha (Barnyardgrass [1]; [13]): 35%
inhibition at 140 g/ha (Barnyardgrass [1]; [14]): 20%
Fresh Weight (Barnyardgrass [1]; [3]): 0.20 Grams
Fresh Weight (Barnyardgrass [1]; [4]): 0.17 Grams
Fresh Weight (Barnyardgrass [1]; [5]): 1.74 Grams
Fresh Weight (Barnyardgrass [1]; [14]): 3.26 Grams
Fresh Weight (Barnyardgrass [1]; [6]): 0 Grams
Fresh Weight (Barnyardgrass [1]; [7]): 0 Grams
Fresh Weight (Barnyardgrass [1]; [8]): 1.21 Grams
Fresh Weight (Barnyardgrass [1]; [9]): 2.73 Grams
Fresh Weight (Barnyardgrass [1]; [10]): 0 Grams
Fresh Weight (Barnyardgrass [1]; [11]): 0 Grams
Fresh Weight (Barnyardgrass [1]; [12]): 0.20 Grams
Fresh Weight (Barnyardgrass [1]; [13]): 2.65 Grams
inhibition at 560 g/ha (foxtail (spp); P.P.I.): 75%
inhibition at 1120 g/ha (foxtail (spp); P.P.I.): 90%
inhibition at 2240 g/ha (foxtail (spp); P.P.I.): 98%
inhibition at 4480 g/ha (foxtail (spp); P.P.I.): 100%
inhibition at 560 g/ha (foxtail (spp); S.A.): 62%
inhibition at 1120 g/ha (foxtail (spp); S.A.): 92%
inhibition at 2240 g/ha (foxtail (spp); S.A.): 93%
inhibition at 4480 g/ha (foxtail (spp); S.A.): 98%
inhibition at 560 g/ha (Barnyardgrass [2]; P.P.I.): 75%
inhibition at 1120 g/ha (Barnyardgrass [2]; P.P.I.): 93%
inhibition at 2240 g/ha (Barnyardgrass [2]; P.P.I.): 98%
inhibition at 4480 g/ha (Barnyardgrass [2]; P.P.I.): 100%
inhibition at 560 g/ha (Barnyardgrass [2]; S.A.): 63%
inhibition at 1120 g/ha (Barnyardgrass [2]; S.A.): 93%
inhibition at 2240 g/ha (Barnyardgrass [2]; S.A.): 93%
inhibition at 4480 g/ha (Barnyardgrass [2]; S.A.): 98%
inhibition at 560 g/ha (Field Corn; P.P.I.): 0%
inhibition at 1120 g/ha (Field Corn; P.P.I.): 0%
inhibition at 2240 g/ha (Field Corn; P.P.I.): 5%
inhibition at 4480 g/ha (Field Corn; P.P.I.): 32%
inhibition at 560 g/ha (Field Corn; S.A.): 0%
inhibition at 1120 g/ha (Field Corn; S.A.): 0%
inhibition at 2240 g/ha (Field Corn; S.A.): 0%
inhibition at 4480 g/ha (Field Corn; S.A.): 15%
inhibition at 560 g/ha (Smartweed; P.P.I.): 20%
inhibition at 2240 g/ha (Smartweed; P.P.I.): 75%
inhibition at 4480 g/ha (Smartweed; P.P.I.): 85%
inhibition at 560 g/ha (Smartweed; S.A.): 0%
inhibition at 1120 g/ha (Smartweed; S.A., 1.12 Kg/Ha): 0%
inhibition at 2240 g/ha (Smartweed; S.A.): 50%
inhibition at 4480 g/ha (Smartweed; S.A.): 90%
GR15 Rate (snap beans): 0.90 Kg/Ha
